Measurements published in US20230107983A1, “COMPOUND ISOLATED FROM TORILIDIS FRUCTUS, AND ANTICANCER PHARMACEUTICAL COMPOSITION CONTAINING SAME AS ACTIVE INGREDIENT” (PHARMA-GENE CO., LTD., priority 2020, published 2023).

Key:
[1] = system: Lung cancer(A549) cell line; experiment: WST-1 assay, cell viability of lung cancer cell line; format: cell-based, human; conditions: 10-100 µg/Mℓ, 24 hours, FIG. 3
Method: (§1) The cytotoxicity of the Tr-9 compound to six cancer cell lines was confirmed. Lung cancer(A549), gastric cancer(AGS), liver cancer(Hep3B)), breast cancer(MDA-MB-231), colorectal cancer(HCT116) and pancreatic cancer(BxPC-3) cell lines and fibroblasts were aliquoted in a 96-well plate in an amount of 5×10^3 cells/well, and the novel compound Tr-9 was treated thereto at a concentration of 10, 20, 40, 60, 80, 100 µg/Mℓ for 24 hours, respectively. Lung cancer cell line was further treated at a concentration of 100 µg/Mℓ for 24 hours, 48 hours and 72 hours.
(§2) Then, the amount of living cells was measured using WST(high sensitive Water Soluble Tetrazolium salt). WST reacts with dehydrogenase in living cells and produces orange-colored watersoluble formazan. Since dehydrogenase that reacts with WST is an enzyme present in the mitochondrial electron transport chain of metabolically active cells and is effective only in living cells, the production of formazan is proportional to the number of living cells. Therefore, the absorbance at 450 nm was measured to confirm the cell viability through the formation of formazan.

[2] = system: gastric cancer(AGS) cell line; experiment: WST-1 assay, cell viability of gastric cancer cell line; format: cell-based; conditions: 10-100 µg/Mℓ, 24 hours, FIG. 4
Method: as §1, §2

[3] = system: liver cancer(Hep3B) cell line; experiment: WST-1 assay, cell viability of liver cancer cell line; format: cell-based; conditions: 10-100 µg/Mℓ, 24 hours, FIG. 6
Method: as §1, §2

[4] = system: breast cancer(MDA-MB-231) cell line; experiment: WST-1 assay, cell viability of breast cancer cell line; format: cell-based; conditions: 10-100 µg/Mℓ, 24 hours, FIG. 5
Method: as §1, §2

[5] = system: colorectal cancer(HCT116) cell line; experiment: WST-1 assay, cell viability of colorectal cancer cell line; format: cell-based, human; conditions: 10-100 µg/Mℓ, 24 hours, FIG. 7
Method: as §1, §2

[6] = system: pancreatic cancer(BxPC-3) cell line; experiment: WST-1 assay, cell viability of pancreatic cancer cell line; format: cell-based; conditions: 10-100 µg/Mℓ, 24 hours, FIG. 8
Method: as §1, §2

Measured: cell viability

C=C(C)C1CC2=CC(=O)CC2C(C)CC1OC(=O)/C(C)=C\C (stereo not drawn) [Tr-10]
decreases the cell viability: [1] | [2] | [3] | [4] | [5] | [6]
